Data as given in patent US11746328B2, “Methods and systems for functional maturation of iPSC and ESC derived cardiomyocytes” (Agilent Technologies, Inc., priority 2017, dated 2023).

Columns and labels:
[1] = system: immature cardiomyocytes; conditions: T3 treatment of immature cardiomyocytes; cited from earlier work
[2] = system: iPSC-derived cardiomyocytes; experiment: Inotropic compound screening on functionally matured iPSC-derived cardiomyocytes, xCELLigence RTCA CardioECR (Example VI, FIG. 7, FIG. 8); format: cell-based; conditions: for beating rate: FIG. 7B
Experimental: Cell monolayer preparation. The iPSC-derived cardiomyocytes were seeded at the optimal seeding density in the wells of E-plate CardioECR 48, which were pre-coated with substrate. The attachment, growth and beating activity of the cells were recorded after cell seeding in real-time using xCELLigence RTCA CardioECR station, which was placed in a 37° C. tissue culture incubator. Medium change was performed every other day.
Induction of functionally mature iPSC-derived cardiomyocytes. The electrical pacing was initiated and applied to the cell monolayer after a stable and robust beating activity of iPSC-derived cardiomyocytes is observed using xCELLigence RTCA cardioECR system. The iPSC-derived cardiomyocytes were then electrically paced at 1 Hz, 1.5 Hz and 2 Hz for 1 week respectively using xCELLigence RTCA CardioECR system. The pulse intensity and pulse duration was optimized before each pacing frequency and continuously applied to the cells. The cells were confirmed to beat at the same frequency as the pacing frequency under the pacing condition. Medium change was performed every day during chronic pacing procedure.
Inotropic compound screening. After completion of functional maturation of cardiomyocytes over the course of ramping up pacing process for 3 weeks, the inotropic compound screening was conducted. The old media was replaced with 90 μL of fresh pre-warmed media the night before compound addition. The cells will were continuously paced for an additional 12 hours at 2 Hz using the CardioECR system. The electrical pacing was terminated 6 hours prior to compound application to ensure that cells generated stable beating rate and beating amplitude for treatment. The cell beating activity is monitored and recorded in real-time on the CardioECR system.
The effective concentration ranges for the test substances were determined. The compound solution is prepared as follows. The compounds are dissolved in the appropriate solvent. If DMSO is used as the solvent, dissolve the compound in a high stock concentration if possible (ideally more than 1000-fold of the highest test concentration) and store at −20° C. Serial dilutions of compounds are prepared 1000× concentrated in appropriate solvent (DMSO or H2O). Diluted compounds are transferred to the wells of a V-bottom microtiter plate for further dilution in culture medium (10× concentrated).
The baseline of beating activity is recorded for 20 seconds every 5 minutes up to 30 minutes immediately prior to compound addition on the CardioECR system. 10 μL of 10× compound solution is added to the wells of CardioECR plate using multichannel pipette. The cell response to the compound is recorded for 20 seconds every 2 minutes immediately after compound exposure using CardioECR system. The cell beating activity, including beating rate and beating amplitude, is evaluated at 30 minutes post compound addition.

[3] = system: iPSC cardiomyocytes; experiment: Inotropic compound test on iPSC cardiomyocytes, xCELLigence RTCA CardioECR (Example V); format: cell-based; conditions: 30 minutes post compound addition; for beating rate: FIG. 6B; for beating amplitude (positive inotropic effect): FIG. 6A
Experimental: The functional maturation of iPSC cardiomyocytes from Example III was tested using inotropic compounds. Results are shown in FIG. 6A-B. In particular, iPSC cardiomyocytes were seeded in the wells of the CardioECR Plate (E-Plate CardioECR 48) for approximately 7 days until they formed a synchronous, stable beating monolayer. The cells were then electrically paced at 1 Hz, 1.5 Hz and 2 Hz for 1 week respectively (week 1: 1 Hz pacing; week 2: 1.5 Hz pacing; week 3: 2 Hz pacing). After pausing the 2 Hz pacing, cell media was replaced with 90 μL of fresh pre-warmed media the night before compound addition. The cells were then continuously paced for additional 8 hours at 2 Hz. The electrical pacing was terminated 5 hours prior to compound addition to ensure that cells would generate a stable beating rate and beating amplitude for treatment. The baseline beating activity was recorded for 20 seconds every 5 minutes up to 30 minutes immediately prior to compound addition. 10 μL of 10× compound solution was then added to the wells of CardioECR plate using a multichannel pipette. The cell response to the compound was recorded for 20 seconds every 2 minutes immediately after compound exposure using CardioECR system. The cell beating activity, including beating rate and beating amplitude, was evaluated at 30 minutes post compound addition.

[4] = FIG. 8 panel, functional matured iCell cardiomyocytes after pacing, representative concentrations
[5] = spontaneous beating cardiomyocytes

For N[C@@H](Cc1cc(I)c(Oc2ccc(O)c(I)c2)c(I)c1)C(=O)O [T3, Tri-iodo-L-thryonine], the calcium handling properties [1] is listed as “enhanced”, the cardiomyocyte size [1] is listed as “increased” and the contractile force generation [1] is listed as “increased”. For the same molecule, the “maximal mitochondrial respiration capacity” value [1] was “increased”, the proliferation [1] was “decreased” and the sarcomere length [1] was “increased”.
For COC(=O)C1=C(C)NC(C)=C([N+](=O)[O-])C1c1ccccc1C(F)(F)F (stereo not shown) [bayK], the inotropic effect [2, 4] was “positive inotropic effect”.
In the case of C[C@H]1O[C@@H](O[C@H]2[C@@H](O)C[C@H](O[C@H]3[C@@H](O)C[C@H](O[C@H]4CC[C@@]5(C)[C@H](CC[C@@H]6[C@@H]5C[C@@H](O)[C@]5(C)[C@@H](C7=CC(=O)OC7)CC[C@]65O)C4)O[C@@H]3C)O[C@@H]2C)C[C@H](O)[C@@H]1O [digoxin], the inotropic effect [2, 4] is reported as “positive inotropic effect”.
With CC(C)NCC(O)c1ccc(O)c(O)c1 (stereo not shown) [isoproterenol] the chronotropic effect [2, 4] was “positive chronotropic effect”, the beating rate ([3]; chronically paced cardiomyocytes (1, 1.5, 2 Hz, 1 week each)) was “increase” and the “beating amplitude (positive inotropic effect)” value ([3]; chronically paced cardiomyocytes) was “increase”. The “beating amplitude (positive inotropic effect)” value [3, 5] was “only observed in paced cells” and the beating rate [3, 5] was “increase”.
In the case of Cc1[nH]c(=O)c(C#N)cc1-c1ccncc1 [milrinone], the beating rate ([2]; chronically paced cardiomyocytes, 30 minutes post compound addition) is reported as “slightly increased”, the beating amplitude ([2]; electrically paced cardiomyocytes, 30 minutes post compound addition, FIG. 7A) is reported as “significantly increased” and the beating rate ([2]; spontaneous beating cardiomyocytes, 30 minutes post compound addition) is reported as “slightly increased”.
